This is an account of results in article PMC4492750, “The discovery of a selective and potent A2a agonist with extended lung retention” (Pharmacology Research & Perspectives, 2015).

As a reminder, the EC50 is the midpoint of the concentration-response curve. Read a low EC50 as a more potent agent.

The target of one experiment is T1, adenosine A1 receptor (Homo sapiens, UniProt P30542).
T1 construct: purchased Perkin Elmer ES-010-M400UA
T1 sequence (P30542 1-326): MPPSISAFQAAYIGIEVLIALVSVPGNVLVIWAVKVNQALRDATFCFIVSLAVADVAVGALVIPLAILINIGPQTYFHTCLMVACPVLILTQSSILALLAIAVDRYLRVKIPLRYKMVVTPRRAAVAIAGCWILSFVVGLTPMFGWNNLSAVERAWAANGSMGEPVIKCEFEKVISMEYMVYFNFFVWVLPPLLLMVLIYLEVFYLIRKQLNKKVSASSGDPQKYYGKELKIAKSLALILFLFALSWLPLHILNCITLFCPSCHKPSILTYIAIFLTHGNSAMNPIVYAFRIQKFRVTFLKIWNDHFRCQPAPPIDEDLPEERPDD
The experiment in a line: Human A1 receptor pharmacology: GTPγ35[S] assay on membranes. Type of experiment: biochemical. The settings on record: average (SD). As to the method: (§1) • Human A2a and A2b receptor pharmacology: Chinese hamster ovary CHO-K1 cells stably expressing human A2a and A2b receptors were used to determine substances agonistic potency and intrinsic activity. […] The signal corresponding to adenosine at 100 μmol/L was used to define 100% intrinsic activity. • Human A3 receptor pharmacology: A3 receptor Gi coupling was measured by GTPγ ^35[S] filter assay at serial dilutions of compound using membranes from Perkin-Elmer. The signal corresponding to the maximal response of NECA at 100 μmol/L was set to 100% intrinsic activity. • Lipopolysaccharide (LPS)-induced TNFα production in primary human peripheral blood mononuclear cells (hTNFα PBMC) and rat mononuclears (rTNFα splenocytes): Human PBMC and rat mononuclear spleen cells were incubated with serial dilutions of compound and stimulated with LPS.
The A1 receptor Gi coupling was measured by a scintillation proximity (SPA) GTPγ ^35[S] assay. Membranes (12.5μg/ml final concentration) were incubated with substances in serial dilutions (50mM Hepes, pH 7.4, 1mM MgCl2, 100mM NaCl, 0.01% BSA, 50μg/ml saponin and 2.5μM GDP) including 1mg/ml Scintillation Beads (Wheat Germ Agglutinin PVT SPA, Perkin Elmer - Rpnq0001), 0.3nM of GTPγ ^35[S] (Perkin Elmer - NEG030H) and counts were read after 16h incubation at 4 °C. The signal corresponding to adenosine at 100μM was used to define 100% efficacy.

In another experiment the target is A2a (Homo sapiens, UniProt P29274). The experiment is described as follows: Selectivity panel of 98 targets in binding assays (Ricerca): A2a. Also on record: Ricerca (contract panel). The settings on record: 10 μmol/L of compound; data on AstraZeneca file. As for the experimental part:
The medicinal chemistry synthetic optimization focused on the position C2 and N6 (Fig.2) with the aim to discover a compound with high A2a potency, high selectivity, low lipophilicity (logD), and high solubility. […] Selectivity of compound 2 was tested across 98 targets in binding assays (www.ricerca.com). The only identified significant hits (i.e., >50% effect at 10 μmol/L of compound 2) were A2a (∼100%) and A3 (∼84%) data on AstraZeneca file.

The target of another experiment is T2, human A2b receptors (Homo sapiens, UniProt P29275).
T2 construct: expressed in transfected cells; host or cells: CHO-K1
T2 sequence (P29275 1-332): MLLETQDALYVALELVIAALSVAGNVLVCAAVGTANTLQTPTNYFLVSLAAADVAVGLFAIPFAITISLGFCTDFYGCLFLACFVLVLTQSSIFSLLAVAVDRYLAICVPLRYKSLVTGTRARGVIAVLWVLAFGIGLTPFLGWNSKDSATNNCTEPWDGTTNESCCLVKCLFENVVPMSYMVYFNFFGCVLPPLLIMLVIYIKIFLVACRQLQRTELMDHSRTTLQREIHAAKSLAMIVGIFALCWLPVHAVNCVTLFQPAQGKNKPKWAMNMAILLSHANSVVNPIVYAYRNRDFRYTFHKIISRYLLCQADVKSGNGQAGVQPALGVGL
The experiment is described as follows: Human A2b receptor pharmacology: cAMP Alphascreen in CHO-K1 cells. Type of experiment: cell-based. The settings on record: average (SD). As to the method:
as §1
Chinese hamster ovary CHO-K1 cells stably expressing human A2a and A2b receptors were stored as 1ml aliquots at -150 °C in freezing medium, thawed immediately prior to assay. […] Cells (10000 cells/well) were incubated with test compounds prepared as serial dilutions. Potency (EC50) and efficacy (% of maximal response) were calculated from data fitted to a 4-parameter logistic function. The signal of 10µM NECA represented the maximal cAMP response (i.e. 100% of efficacy) produced by these cells.
In general terms: Bead proximity is the source of the signal in Alpha formats.

The target in a further experiment is T3, A3 (Homo sapiens, UniProt P0DMS8).
T3 sequence (P0DMS8 1-318): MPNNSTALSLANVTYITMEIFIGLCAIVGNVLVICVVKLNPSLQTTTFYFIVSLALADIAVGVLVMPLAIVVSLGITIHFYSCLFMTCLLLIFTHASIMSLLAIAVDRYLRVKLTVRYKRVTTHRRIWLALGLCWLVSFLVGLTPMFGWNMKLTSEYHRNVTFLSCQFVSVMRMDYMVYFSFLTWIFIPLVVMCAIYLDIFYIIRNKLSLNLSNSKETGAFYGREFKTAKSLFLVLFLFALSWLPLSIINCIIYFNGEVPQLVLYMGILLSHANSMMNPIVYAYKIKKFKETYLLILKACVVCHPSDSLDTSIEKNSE
The experiment in a line: Human A3 receptor pharmacology: GTPγ35[S] filter assay on membranes. Particulars: average (SD). Type of experiment: biochemical. More on the design: purchased Perkin Elmer ES-012-M400UA. As for the experimental part:
as §1
A3 receptor Gi coupling was measured by GTPγ ^35[S] filter assay using membrane from Perkin Elmer (ES-012-M400UA). Membranes (7.5μg/ml final concentration) were incubated with substances in serial dilutions (50mM Hepes, pH 7.4, 5mM MgCl2, 100mM NaCl, 0.01% BSA, 100μM DTT and 25μM GDP) including 1nM of GTPγ ^35[S] (Perkin Elmer - NEG030H) for 2h in room temperature in the assay plate (Corning – 3365). […] After adding 50µl scintillant/well, sealed plates were counted. […]

Chain of A2a (P29274 whole entry): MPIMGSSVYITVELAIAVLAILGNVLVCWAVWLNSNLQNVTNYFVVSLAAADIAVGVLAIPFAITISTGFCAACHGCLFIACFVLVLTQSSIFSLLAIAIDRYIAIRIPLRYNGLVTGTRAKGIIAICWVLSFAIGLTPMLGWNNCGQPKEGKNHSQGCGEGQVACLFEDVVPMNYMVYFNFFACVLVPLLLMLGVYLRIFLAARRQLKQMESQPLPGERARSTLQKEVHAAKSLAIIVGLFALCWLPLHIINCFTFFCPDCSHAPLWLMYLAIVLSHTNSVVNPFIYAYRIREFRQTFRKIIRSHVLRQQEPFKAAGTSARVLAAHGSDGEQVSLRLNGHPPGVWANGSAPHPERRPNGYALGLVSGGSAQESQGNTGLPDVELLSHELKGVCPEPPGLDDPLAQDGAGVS

`CCNC(=O)[C@H]1O[C@@H](n2cnc3c(NC(CC)CC)nc(NCCNC(=O)Nc4cc[n+](C)cc4)nc32)[C@H](O)[C@@H]1O` [Compound 2, (2S,3S,4R,5R)-N-ethyl-5-[6-(1-ethylpropylamino)-2-[2-[(1-methylpyridin-1-ium-4-yl)carbamoylamino]ethylamino]purin-9-yl]-3,4-dihydroxy-tetrahydrofuran-2-carboxamide]: the figures for the EC50 on adenosine A1 receptor, at human A2b receptors and on A3 were 2.1 µM, 3.6 µM and 6.6 µM, respectively. Also, at A2a, the “Effect in binding assay, A2a” value is listed as about 100%.
